Measurements as given in US7981903B2, “2-[2-{phenylamino}-1H-pyrrolo[2,3-D]pyrimidin-4-yl)amino] benzamide derivatives as IGF-1R inhibitors for the treatment of cancer” (GlaxoSmithKline LLC, priority 2007, dated 2011).
Where “and” joins values, the source holds several entries; their conditions need not be identical. Identical values can stand only once.

Key:
human IGF1R (hIGF1R) = target: T1, human IGF1R (hIGF1R) (Homo sapiens, UniProt P08069); assay: TR-FRET kinase assay of purified hIGF1R; format: biochemical; conditions: activated hIGF1R 0.5 nM, 10 μM ATP, values given as pIC50 category, read-out: IGF-1R pIC50 (converted)
T1 construct: containing amino acid residues 957-1367 of human IGF1R; made in house; host or cells: Sf9 cells (baculovirus)

ALK = ALK (Homo sapiens, UniProt Q9UM73); assay: ALK enzyme assay (HTRF); format: biochemical; conditions: 0.25 nM ALK, 15.0 μM ATP, values given as pIC50 category
Method in brief: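 Final compound range 0.00017 to 10 μM (twelve 1:3 dilutions). Kinase reaction with ATP and biotinylated synthetic peptide runs 120 min at 20° C, stopped with EDTA; phosphotyrosine detected by HTRF after 60 min. Inhibition referenced to DMSO (1%) and EDTA (0.1 M) controls, curve-fitted.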

[1] = target: T2, NIH-3T3 cells overexpressing human IR (Homo sapiens, UniProt P06213); assay: IR cellular autophosphorylation (DELFIA); format: cell-based; conditions: 2 h compound, insulin 3 ug/ml for 15 minutes, IC50 category
T2 construct: expressed in transfected cells; host or cells: NIH-3T3 (mouse fibroblasts)
Method in brief: (§1)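 Receptor autophosphorylation measured by DELFIA, capturing IGF-1R or IRβ and detecting with europium anti-pTyr, reported as percent of IGF-1- or insulin-stimulated signal. Compounds (30 uM to 1.5 nM) added 2 h before ligand, then 15 min stimulation (IGF-1 30 ng/ml or insulin 3 ug/ml).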

NCI-H929 = assay: Inhibition of cell proliferation (CellTiter-Glo or InCell analyzer), NCI-H929; format: cell-based; conditions: Homo sapiens, 72 h / 3 days, values given as IC50 category
Description: (§2) Cell proliferation was measured by either CellTiter-Glo (measures cellular ATP level as a surrogate for total cell number) or by InCell analyzer (counts number of nuclei as a measure of cell number).
(§3) For CellTiter-Glo assay, exponentially growing cell lines of different tumor origins, cultured in appropriate media containing 10% fetal bovine serum at 37° C. in a 5% CO2 incubator, were plated at low density (less than 2000cells/well) in 96-well plates. Twenty four hours post-plating, cells were treated with different concentrations of test compounds ranging from 30 uM to 1.5 nM. Several wells were left untreated as a control. Seventy two hours post-treatment, cell numbers were determined using 50-100 ul per well of CellTiter-Glo (Promega #G7573). Plates were incubated at 37° C. for 30 minutes and the chemiluminescent signal was read on the Victor V or Envison 2100 reader.
(§4) For InCell Analyser assay, various cell lines of different tumor origins were grown to 70-80% confluency in appropriate culture media containing 10% fetal bovine serum at 37° C. in a 5% CO2 incubator. On day −1, cells were seeded at 2 densities in 384-well plates and incubated at 37° C. overnight. Stock compound plates were prepared in advance which contained dimethyl sulfoxide (DMSO) alone and a 9-point half-log decreasing dose range of the compound in DMSO. The compound plates were stored at −80° C. and each plate was only thawed once and used. On day 0, the main assay plates received compound or DMSO via a sonic delivery system (ECHO). The highest final concentration of compound of the dose range in the culture plates was 10 uM. These plates were cultured at 37° C. for 3 days. […] On day 3, the compound treated plates were stained and fixed to measure proliferation, apoptosis, and mitotic index using an InCelL1000 analyser. A nuclear stain was used to identify cells in the wells. By counting the number of nuclei, the proliferation index of compound treated groups were calculated as a percentage relative to the DMSO control, which was set to 100%. The IC50 values were calculated using model 205 in ExcelFit.
(§5) IC50 (nM) values for compounds of select examples were categorized by relative inhibition of cell proliferation.

[2] = target: T3, NIH-3T3 cells overexpressing human IGF-1R (Homo sapiens, UniProt P08069); assay: IGF-1R cellular autophosphorylation (DELFIA); format: cell-based
T3 construct: expressed in transfected cells; host or cells: NIH-3T3 (mouse fibroblasts)
Method in brief: as §1

Colo205 = assay: Inhibition of cell proliferation (CellTiter-Glo or InCell analyzer), Colo205; format: cell-based; conditions: Homo sapiens, COLO 205, 72 h / 3 days, values given as IC50 category
Description: as §2, §3, §4, §5

human IR (hIR) = target: T4, human IR (hIR) (Homo sapiens, UniProt P06213); assay: TR-FRET kinase assay of purified hIR; format: biochemical; conditions: activated hIR 0.5 nM, 10 μM ATP, values given as pIC50 category
T4 construct: containing amino acid residues 979-1382 of human IR; made in house; host or cells: Sf9 cells (baculovirus), same process as hIGF1R
T4 sequence (P06213 979-1382): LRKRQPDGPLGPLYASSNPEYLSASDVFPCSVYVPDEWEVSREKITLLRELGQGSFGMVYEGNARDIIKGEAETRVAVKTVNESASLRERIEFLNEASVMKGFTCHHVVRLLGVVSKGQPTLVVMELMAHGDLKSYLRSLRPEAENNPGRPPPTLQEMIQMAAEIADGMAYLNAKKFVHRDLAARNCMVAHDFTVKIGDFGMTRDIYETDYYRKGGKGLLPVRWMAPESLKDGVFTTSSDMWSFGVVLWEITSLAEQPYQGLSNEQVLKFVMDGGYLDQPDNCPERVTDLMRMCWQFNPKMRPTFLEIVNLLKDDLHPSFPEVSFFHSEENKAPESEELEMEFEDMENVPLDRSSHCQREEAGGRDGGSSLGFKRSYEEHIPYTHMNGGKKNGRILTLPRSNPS

Chain of ALK (Q9UM73 19-1620): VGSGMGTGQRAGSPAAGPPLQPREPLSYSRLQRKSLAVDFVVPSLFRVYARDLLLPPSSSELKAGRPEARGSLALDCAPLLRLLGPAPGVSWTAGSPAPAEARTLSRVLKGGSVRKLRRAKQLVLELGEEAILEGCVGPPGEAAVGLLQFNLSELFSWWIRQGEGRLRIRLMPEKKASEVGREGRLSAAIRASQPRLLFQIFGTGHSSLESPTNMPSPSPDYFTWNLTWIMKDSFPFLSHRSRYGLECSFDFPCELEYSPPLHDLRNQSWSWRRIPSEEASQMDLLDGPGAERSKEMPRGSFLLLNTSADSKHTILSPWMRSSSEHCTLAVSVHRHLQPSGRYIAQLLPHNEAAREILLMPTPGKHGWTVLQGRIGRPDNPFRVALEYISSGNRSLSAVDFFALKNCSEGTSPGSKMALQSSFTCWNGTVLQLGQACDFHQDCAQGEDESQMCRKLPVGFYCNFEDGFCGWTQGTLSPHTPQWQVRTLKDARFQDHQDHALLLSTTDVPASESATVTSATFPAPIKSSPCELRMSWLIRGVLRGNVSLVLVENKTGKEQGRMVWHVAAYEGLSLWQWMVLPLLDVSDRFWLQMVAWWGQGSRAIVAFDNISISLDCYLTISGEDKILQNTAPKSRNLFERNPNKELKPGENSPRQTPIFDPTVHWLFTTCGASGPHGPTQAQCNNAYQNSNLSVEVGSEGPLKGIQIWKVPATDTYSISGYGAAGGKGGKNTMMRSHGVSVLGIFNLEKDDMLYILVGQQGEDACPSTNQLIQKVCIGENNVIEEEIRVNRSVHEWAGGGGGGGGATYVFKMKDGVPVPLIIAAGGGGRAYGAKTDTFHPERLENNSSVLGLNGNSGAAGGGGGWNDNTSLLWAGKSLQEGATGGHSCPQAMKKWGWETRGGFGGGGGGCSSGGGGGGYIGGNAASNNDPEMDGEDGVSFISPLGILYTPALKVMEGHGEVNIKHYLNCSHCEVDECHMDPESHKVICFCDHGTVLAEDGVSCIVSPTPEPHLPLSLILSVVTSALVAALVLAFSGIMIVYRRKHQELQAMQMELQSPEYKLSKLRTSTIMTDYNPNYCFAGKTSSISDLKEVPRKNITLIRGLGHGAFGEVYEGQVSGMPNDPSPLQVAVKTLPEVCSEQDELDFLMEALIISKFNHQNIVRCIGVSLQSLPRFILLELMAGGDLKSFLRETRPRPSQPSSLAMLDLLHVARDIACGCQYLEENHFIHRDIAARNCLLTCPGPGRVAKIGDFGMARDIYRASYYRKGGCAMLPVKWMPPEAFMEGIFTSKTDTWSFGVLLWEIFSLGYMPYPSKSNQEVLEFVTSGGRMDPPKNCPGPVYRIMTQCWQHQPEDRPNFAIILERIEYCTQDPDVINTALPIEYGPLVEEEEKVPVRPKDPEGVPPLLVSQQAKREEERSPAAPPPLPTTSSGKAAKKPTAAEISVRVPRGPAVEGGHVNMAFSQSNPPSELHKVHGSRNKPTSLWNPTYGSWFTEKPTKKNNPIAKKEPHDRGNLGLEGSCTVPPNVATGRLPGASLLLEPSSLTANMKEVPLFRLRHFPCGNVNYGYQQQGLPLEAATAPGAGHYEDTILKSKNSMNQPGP
T2 sequence (P06213 28-1382): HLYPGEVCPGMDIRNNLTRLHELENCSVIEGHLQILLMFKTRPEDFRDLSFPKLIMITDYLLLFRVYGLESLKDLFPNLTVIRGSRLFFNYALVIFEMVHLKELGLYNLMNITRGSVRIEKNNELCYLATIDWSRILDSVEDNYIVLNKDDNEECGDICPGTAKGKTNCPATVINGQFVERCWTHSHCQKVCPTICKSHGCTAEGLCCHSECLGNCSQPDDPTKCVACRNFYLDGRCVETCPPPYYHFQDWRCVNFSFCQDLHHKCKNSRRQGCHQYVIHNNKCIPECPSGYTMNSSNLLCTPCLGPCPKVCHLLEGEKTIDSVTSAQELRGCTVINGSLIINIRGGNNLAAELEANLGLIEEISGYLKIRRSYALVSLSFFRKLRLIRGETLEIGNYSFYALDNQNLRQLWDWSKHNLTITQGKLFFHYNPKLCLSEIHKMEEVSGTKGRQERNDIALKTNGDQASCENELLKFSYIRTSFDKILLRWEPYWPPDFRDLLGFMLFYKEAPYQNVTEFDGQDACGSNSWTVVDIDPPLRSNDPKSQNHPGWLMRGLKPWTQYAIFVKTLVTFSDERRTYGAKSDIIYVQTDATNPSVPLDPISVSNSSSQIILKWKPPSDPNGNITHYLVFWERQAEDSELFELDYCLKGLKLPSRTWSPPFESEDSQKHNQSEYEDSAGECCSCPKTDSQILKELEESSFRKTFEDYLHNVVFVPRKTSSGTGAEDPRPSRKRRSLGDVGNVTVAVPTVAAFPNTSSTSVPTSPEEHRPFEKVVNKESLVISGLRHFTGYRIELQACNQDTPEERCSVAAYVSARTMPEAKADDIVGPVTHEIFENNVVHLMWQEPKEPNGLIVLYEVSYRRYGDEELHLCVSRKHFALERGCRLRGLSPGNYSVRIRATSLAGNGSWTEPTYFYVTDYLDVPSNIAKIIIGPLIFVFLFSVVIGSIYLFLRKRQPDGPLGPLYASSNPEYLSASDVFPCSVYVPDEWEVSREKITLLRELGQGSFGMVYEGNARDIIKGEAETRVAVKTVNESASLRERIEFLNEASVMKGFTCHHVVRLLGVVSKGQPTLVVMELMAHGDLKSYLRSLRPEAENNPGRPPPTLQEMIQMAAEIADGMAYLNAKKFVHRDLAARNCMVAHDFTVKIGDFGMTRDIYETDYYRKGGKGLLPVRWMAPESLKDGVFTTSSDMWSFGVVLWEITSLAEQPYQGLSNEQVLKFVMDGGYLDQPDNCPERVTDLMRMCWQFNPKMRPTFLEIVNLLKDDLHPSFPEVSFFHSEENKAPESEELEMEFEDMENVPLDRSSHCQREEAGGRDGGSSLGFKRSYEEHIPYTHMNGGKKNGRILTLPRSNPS
T3 sequence (P08069 31-1367): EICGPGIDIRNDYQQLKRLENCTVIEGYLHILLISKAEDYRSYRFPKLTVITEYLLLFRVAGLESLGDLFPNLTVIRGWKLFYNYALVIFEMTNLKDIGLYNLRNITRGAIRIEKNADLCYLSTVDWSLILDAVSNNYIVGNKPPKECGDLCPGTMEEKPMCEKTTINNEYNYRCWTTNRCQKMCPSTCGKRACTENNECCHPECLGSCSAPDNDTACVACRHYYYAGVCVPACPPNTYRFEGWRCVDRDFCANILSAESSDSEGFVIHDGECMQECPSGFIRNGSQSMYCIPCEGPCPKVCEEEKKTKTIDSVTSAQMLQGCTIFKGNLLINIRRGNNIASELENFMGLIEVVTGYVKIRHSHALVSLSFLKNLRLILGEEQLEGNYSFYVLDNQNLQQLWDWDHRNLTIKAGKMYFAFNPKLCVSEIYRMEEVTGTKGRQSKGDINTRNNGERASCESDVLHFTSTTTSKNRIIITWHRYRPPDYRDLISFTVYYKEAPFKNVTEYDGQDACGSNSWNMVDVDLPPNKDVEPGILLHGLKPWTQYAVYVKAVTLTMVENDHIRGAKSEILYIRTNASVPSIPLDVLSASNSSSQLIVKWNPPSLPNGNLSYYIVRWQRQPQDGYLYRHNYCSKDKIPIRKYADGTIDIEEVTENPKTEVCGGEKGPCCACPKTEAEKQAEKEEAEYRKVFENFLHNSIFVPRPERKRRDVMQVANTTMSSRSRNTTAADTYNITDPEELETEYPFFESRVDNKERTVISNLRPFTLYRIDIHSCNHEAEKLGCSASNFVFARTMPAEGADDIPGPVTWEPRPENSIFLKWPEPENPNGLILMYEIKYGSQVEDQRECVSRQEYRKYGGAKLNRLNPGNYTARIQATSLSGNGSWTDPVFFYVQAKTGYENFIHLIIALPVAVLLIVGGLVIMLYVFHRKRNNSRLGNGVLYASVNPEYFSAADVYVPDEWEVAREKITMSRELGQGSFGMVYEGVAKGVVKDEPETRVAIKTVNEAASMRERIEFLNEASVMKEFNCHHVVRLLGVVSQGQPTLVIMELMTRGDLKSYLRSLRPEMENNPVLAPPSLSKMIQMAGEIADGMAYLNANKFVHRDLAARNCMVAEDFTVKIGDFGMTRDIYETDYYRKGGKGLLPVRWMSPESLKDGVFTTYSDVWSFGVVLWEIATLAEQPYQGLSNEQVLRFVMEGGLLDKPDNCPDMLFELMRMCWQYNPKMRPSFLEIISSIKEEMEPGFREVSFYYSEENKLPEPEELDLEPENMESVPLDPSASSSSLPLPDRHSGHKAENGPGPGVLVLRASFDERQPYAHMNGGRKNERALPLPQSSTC
T1 sequence (P08069 957-1367): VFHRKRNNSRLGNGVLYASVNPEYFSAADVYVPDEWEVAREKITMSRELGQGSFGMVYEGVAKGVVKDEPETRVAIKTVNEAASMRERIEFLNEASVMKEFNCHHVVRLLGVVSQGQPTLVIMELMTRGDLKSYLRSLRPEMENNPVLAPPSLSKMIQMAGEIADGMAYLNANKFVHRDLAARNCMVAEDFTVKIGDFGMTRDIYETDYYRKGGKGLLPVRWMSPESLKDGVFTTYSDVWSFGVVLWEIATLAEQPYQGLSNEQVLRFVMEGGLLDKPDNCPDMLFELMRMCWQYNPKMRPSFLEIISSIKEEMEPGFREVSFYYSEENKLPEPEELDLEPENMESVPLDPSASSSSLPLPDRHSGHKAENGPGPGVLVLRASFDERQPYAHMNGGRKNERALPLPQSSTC

Row | SMILES | IC50 (human IGF1R (hIGF1R)) [nM] | IC50 (ALK) | IC50 [1] [nM] | IC50 (NCI-H929) [nM] | IC50 [2] [nM] | IC50 (Colo205) [nM] | IC50 (human IR (hIR)) [nM]
1 | COc1cc2ccn(CC(=O)N(C)C)c2cc1Nc1nc(Nc2cccc(F)c2C(N)=O)c2cc[nH]c2n1 [Example 196, 2-[(2-{[1-[2-(dimethylamino)-2-oxoethyl]-5-(methyloxy)-1H-indol-6-yl]amino}-1H-pyrrolo[2,3-d]pyrimidin-4-yl)amino]-6-fluorobenzamide] | 5.01 to 200 | 5.01 to 200 nM | > 500 | > 1000 | > 500 |  | 
2 | COc1cc(N2CCC(N3CCCCC3)CC2)ccc1Nc1nc(Nc2cccc(F)c2C(N)=O)c2cc[nH]c2n1 [Example 45, 2-[(2-{[4-(1,4′-bipiperidin-1′-yl)-2-(methyloxy)phenyl]amino}-1H-pyrrolo[2,3-d]pyrimidin-4-yl)amino]-6-fluorobenzamide] | 1.26 to 3.98 |  | 100 to 500 | < 250 | 100 to 500 | 250 to 1000 | 1.26 to 3.98
3 | CCCN1CCC(c2ccc(Nc3nc(Nc4cccc(F)c4C(N)=O)c4cc[nH]c4n3)c(OC)c2)CC1 [Example 42, 2-fluoro-6-[(2-{[2-(methyloxy)-4-(1-propyl-4-piperidinyl)phenyl]amino}-1H-pyrrolo[2,3-d]pyrimidin-4-yl)amino]benzamide] | 0.251 to 1 |  | 100 to 500 | < 250 | 100 to 500 | < 250 | 0.251 to 1
4 | COc1cc2c(cc1Nc1nc(Nc3ccc(F)c(F)c3C(N)=O)c3cc[nH]c3n1)N(C(=O)CN(C)C)CC2 [Example 159, 6-[(2-{[1-(N,N-dimethylglycyl)-5-(methyloxy)-2,3-dihydro-1H-indol-6-yl]amino}-1H-pyrrolo[2,3-d]pyrimidin-4-yl)amino]-2,3-difluorobenzamide] | 1.26 to 3.98 | 1.26 to 3.98 nM |  | < 250 |  | < 250 | 1.26 to 3.98
5 | COc1cc2c(cc1Nc1nc(Nc3cccc(F)c3C(N)=O)c3cc[nH]c3n1)N(C(=O)CN(C)C)CCC2(C)C [Example 225, 2-[(2-{[1-(N,N-dimethylglycyl)-4,4-dimethyl-6-(methyloxy)-1,2,3,4-tetrahydro-7-quinolinyl]amino}-1H-pyrrolo[2,3-d]pyrimidin-4-yl)amino]-6-fluorobenzamide] | 0.251 to 1 | 0.251 to 1 nM |  | < 250 |  | < 250 | 0.251 to 1
6 | COc1cc2c(cc1Nc1nc(Nc3cccc(F)c3C(N)=O)c3cc[nH]c3n1)N(C(C)=O)CCC2 [Example 216, 2-[(2-{[1-acetyl-6-(methyloxy)-1,2,3,4-tetrahydro-7-quinolinyl]amino}-1H-pyrrolo[2,3-d]pyrimidin-4-yl)amino]-6-fluorobenzamide] | 5.01 to 200 |  | > 500 | 250 to 1000 | > 500 | > 1000 | 5.01 to 158
7 | CNC(=O)c1c(F)cccc1Nc1nc(Nc2cc3c(cc2OC)CCCN3C(C)=O)nc2[nH]ccc12 [Example 215, 2-[(2-{[1-acetyl-6-(methyloxy)-1,2,3,4-tetrahydro-7-quinolinyl]amino}-1H-pyrrolo[2,3-d]pyrimidin-4-yl)amino]-6-fluoro-N-methylbenzamide] | 5.01 to 200 |  | > 500 | 250 to 1000 | > 500 | > 1000 | 5.01 to 158
8 | CNC(=O)c1c(F)cccc1Nc1nc(Nc2cc3c(cc2OC)C(C)(C)CCN3C(=O)CN2CCCC2)nc2[nH]ccc12 [Example 224, 2-[(2-{[4,4-dimethyl-6-(methyloxy)-1-(1-pyrrolidinylacetyl)-1,2,3,4-tetrahydro-7-quinolinyl]amino}-1H-pyrrolo[2,3-d]pyrimidin-4-yl)amino]-6-fluoro-N-methylbenzamide] | 0.251 to 1 | 1.26 to 3.98 nM and 0.251 to 1 nM |  | < 250 |  | 250 to 1000 | 0.251 to 1

The remaining lines, values ahead:

Row | IC50 (human IGF1R (hIGF1R)) [nM] | IC50 (ALK) | IC50 [1] [nM] | IC50 (NCI-H929) [nM] | IC50 [2] [nM] | IC50 (Colo205) [nM] | IC50 (human IR (hIR)) [nM] | SMILES
9 |  | 0.251 to 1 nM | 100 to 500 | < 250 | < 100 | 250 to 1000 |  | COc1cc2c(cc1Nc1nc(Nc3cc(Cl)cc(F)c3C(N)=O)c3cc[nH]c3n1)N(C(=O)CN1CCCC1)CCC2 [Example 173, 4-chloro-2-fluoro-6-[(2-{[6-(methyloxy)-1-(1-pyrrolidinylacetyl)-1,2,3,4-tetrahydro-7-quinolinyl]amino}-1H-pyrrolo[2,3-d]pyrimidin-4-yl)amino]benzamide]
10 | 0.251 to 1 |  | 100 to 500 | < 250 | 100 to 500 | 250 to 1000 | 0.251 to 1 | COc1cc2c(cc1Nc1nc(Nc3cccc(F)c3C(N)=O)c3c(C)c[nH]c3n1)N(C(=O)CN(C)C)CC2 [Example 259, 2-[(2-{[1-(N,N-dimethylglycyl)-5-(methyloxy)-2,3-dihydro-1H-indol-6-yl]amino}-5-methyl-1H-pyrrolo[2,3-d]pyrimidin-4-yl)amino]-6-fluorobenzamide]
11 | 1.26 to 3.98 | 1.26 to 3.98 nM |  | 250 to 1000 |  | > 1000 | 1.26 to 3.98 | CNC(=O)c1c(F)cccc1Nc1nc(Nc2cc3c(cc2OC)C(C)(C)CC(=O)N3)nc2[nH]ccc12 [Example 228, 2-[(2-{[4,4-dimethyl-6-(methyloxy)-2-oxo-1,2,3,4-tetrahydro-7-quinolinyl]amino}-1H-pyrrolo[2,3-d]pyrimidin-4-yl)amino]-6-fluoro-N-methylbenzamide]
12 | 0.251 to 1 |  | 100 to 500 | 250 to 1000 | 100 to 500 | 250 to 1000 | 0.251 to 1 | CNC(=O)c1c(F)cc(Cl)cc1Nc1nc(Nc2cc3c(cc2OC)CCN3C(=O)CN2CCCC2)nc2[nH]ccc12 [Example 176, 4-chloro-2-fluoro-N-methyl-6-[(2-{[5-(methyloxy)-1-(1-pyrrolidinylacetyl)-2,3-dihydro-1H-indol-6-yl]amino}-1H-pyrrolo[2,3-d]pyrimidin-4-yl)amino]benzamide]
13 | 1.26 to 3.98 | 0.251 to 1 nM |  | < 250 |  | < 250 | 1.26 to 3.98 | CNC(=O)c1c(F)cccc1Nc1nc(Nc2cc3c(cc2OC)CCN3C(=O)[C@H](C)N(C)C)nc2[nH]ccc12 [Example 194, 2-[(2-{[1-(N,N-dimethyl-L-alanyl)-5-(methyloxy)-2,3-dihydro-1H-indol-6-yl]amino}-1H-pyrrolo[2,3-d]pyrimidin-4-yl)amino]-6-fluoro-N-methylbenzamide]
14 | 0.251 to 1 | 0.251 to 1 nM |  | < 250 |  | < 250 | 0.251 to 1 | COc1cc2c(cc1Nc1nc(Nc3cccc(F)c3C(N)=O)c3cc[nH]c3n1)N(C(=O)CN1CCCC1)CCC2(C)C [Example 223, 2-[(2-{[4,4-dimethyl-6-(methyloxy)-1-(1-pyrrolidinylacetyl)-1,2,3,4-tetrahydro-7-quinolinyl]amino}-1H-pyrrolo[2,3-d]pyrimidin-4-yl)amino]-6-fluorobenzamide]
15 |  | 1.26 to 3.98 nM | > 500 | 250 to 1000 | > 500 | > 1000 |  | COc1c(Nc2nc(Nc3cccc(F)c3C(N)=O)c3cc[nH]c3n2)ccc(N2CCN(C(C)C)CC2)c1C [Example 50, 2-fluoro-6-[(2-{[3-methyl-4-[4-(1-methylethyl)-1-piperazinyl]-2-(methyloxy)phenyl]amino}-1 H-pyrrolo[2,3-d]pyrimidin-4-yl)amino]benzamide]
